Details: Liquid, Capillary tube (Ostwald / Ubbelohde) method

O [water]
viscosity [mPa·s]
Details | 296.56 K | 337.85 K | 369.15 K | 398.75 K | 436.34 K | 482.43 K | 521.56 K | 580.74 K
10000 kPa | 0.9188 | 0.4362 | 0.296 | 0.2229 | 0.168 | 0.1308 | 0.1089 | 0.0838
30000 kPa | 0.9185 | 0.4437 | 0.3028 | 0.2295 | 0.1743 | 0.1341 | 0.1143 | 0.0953
